According to US20060035879A1, “Organic Compounds” (priority 2002, published 2006):

Key:
[1] = Drug release from polymer coatings in aqueous solution; format: physicochemical; settings: PBS pH 7.4 or PEG/water 40/60 v/v, 37°, solutions changed daily; stable = less than 10% variation of the drug release rate
Experimental: (§1) A stent (e.g. a Multi-Link Vision stent, Guidant Corp.; or a DRIVER stent, Medtronic Corp.) is weighed and then mounted on a rotating or other support for coating with a polymeric or other synthetic or biological carrier used as a drug reservoir. In an exemplary carrier application procedure, while the stent is rotating, a 100 μl aliquot of a solution of polylactide glycolide, 0.75 mg/ml of pimecrolimus and 0.0015 mg/ml 2,6-di-tert-butyl-4-methylphenol dissolved in a 50:50 mixture of methanol and tetrahydrofuran, is coated onto it. The coated stent is removed from the support and allowed to air-dry. After a final weighing the amount of coating on the stent is determined.
Drug Release from Polymer Coatings in Aqueous Solution
Four 2 cm pieces of stents coated as described in Example 3 above are placed into 100 ml of PBS having a pH of 7.4. Another 4 pieces from each series are placed into 100 ml of PEG/water solution (40/60 v/v, MW of PEG=400). The stent pieces are incubated at 37° in a shaker. The buffer and PEG solutions are changed daily and different assays are performed on the solution to determine the released pimecrolimus concentrations. […] The term “stable pimecrolimus” means that less than 10% variation of the drug release rate is observed.

[2] = Drug release from polymer coatings in plasma; format: physicochemical; settings: citrated human plasma, 37°, changed daily; stable = less than 10% variation of the drug release rate
Experimental: as §1
Drug Release from Polymer Coatings in Plasma
Release of pimecrolimus in plasma is also studied. 1 cm pieces of a coated stent are put into 1 ml of citrated human plasma (from Helena Labs) in lyophilized form and reconstituted by adding 1 ml of sterile deionized water. Three sets of stent plasma solutions are incubated at 37° and the plasma is changed daily. Different assays are performed on the solution to determine the released pimecrolimus concentrations.

[3] = tested on: New Zealand White rabbit iliac arteries; assay: Rabbit iliac stent model (in-stent restenosis); format: in vivo; settings: oral gavage, vs placebo
Experimental: Inhibition of In-Stent Restenosis and Proximal and Distal Lesion Development at 28 Days in the Rabbit Iliac Stent Model A combined angioplasty and stenting procedure is performed in New Zealand White rabbit iliac arteries. Iliac artery balloon injury is performed by inflating a 3.0×9.0 mm angioplasty balloon in the mid-portion of the artery followed by “pull-back” of the catheter for 1 balloon length. Balloon injury is repeated 2 times, and a 3.0×12 mm stent is deployed at 6 atm for 30 seconds in the iliac artery. Balloon injury and stent placement is then performed on the contralateral iliac artery in the same manner. A post-stent deployment angiogram is performed. All animals receive oral aspirin 40 mg/day daily as anti-platelet therapy and are fed standard low-cholesterol rabbit chow. Twenty-eight days after stenting, animals are anesthetized and euthanized and the arterial tree is perfused at 100 mmHg with lactated Ringer's solution for several minutes, then perfused with 10% formalin at 100 mmHg for 15 minutes. The vascular section between the distal aorta and the proximal femoral arteries is excised and cleaned of periadventitial tissue. Three sections of artery are sampled: the stented section, the artery 5 mm immediately proximal to the stent and the artery 5 mm immediately distal to the stent is embedded in plastic. Sections are taken from the proximal, middle, and distal portions of each stent. Serial sections are also taken of the first 2 mm proximal and distal to the stent. Sections are stained with hematoxylin-eosin and Movat pentachrome stains. […] The neointima and neointimal thickness is measured both at and between the stent struts. The vessel area is measured as the area within the EEL. Cells staining positively as macrophages are counted in the sections taken from the stented area of artery. Data are expressed as mean ±SEM. Statistical analysis of the histologic data is accomplished using ANOVA due to the fact that two stented arteries are measured per animal with a mean generated per animal. […]

[4] = tested on: rat carotid artery balloon injury; assay: Rat carotid artery balloon injury model; format: in vivo
[5] = tested on: allogeneic kidney transplantation; settings: oral administration; cited from earlier work

Row | pimecrolimus release from coated stents [1] | pimecrolimus release from coated stents in plasma [2] | Compound | extent of restenotic lesion formation ([3]; 28 days after stenting) | lesion formation in the portions of artery immediately proximal and immediately distal to the stent ([3]; 28 days) | number of inflammatory cells, especially in the area surrounding the stent struts ([3]; 28 days) | constrictive remodeling ([4]; local administration to the adventitia) | infiltration of CD45+ leukocytes ([4]; local administration to the adventitia via catheter/Alzet minipump, day 1) | early and late neointimal lesions ([4]; local administration to the adventitia, early 9 days and late 21-28 days post-ballooning) | CD45-positive leukocyte infiltration into the vessel wall and adventitia ([4]; oral dosing, 1 day post-balloon injury) | neointimal lesion formation following balloon injury ([4]; oral dosing, at 9 and 12 days) | minimum effective dose (MED) [5] [mg/kg]
1 | stable pimecrolimus release | stable pimecrolimus release | CC[C@@H]1/C=C(\C)C[C@H](C)C[C@H](OC)[C@H]2O[C@@](O)(C(=O)C(=O)N3CCCC[C@H]3C(=O)O[C@H](/C(C)=C/[C@@H]3CC[C@H](Cl)[C@H](OC)C3)[C@H](C)[C@@H](O)CC1=O)[C@H](C)C[C@@H]2OC [pimecrolimus, {[1E-(1R,3R,4S)]1R,9S,12S,13R,14S,17R,18E,21S,23S,24R,25S,27R}-12-[2-(4-chloro-3-methoxycyclohexyl)-1-methylvinyl]-17-ethyl-1,14-dihydroxy-23,25-dimethoxy-13,19,21,27-tetramethyl-11,28,dioxa-4-azatricyclo [22.3.1.0(4,9)]octacos-18-ene-2,3,10,16-tetraone] | marked reduction | inhibited | significantly reduced | potent inhibition | potent inhibition | potent inhibition | significantly reduce | significantly reduce | 
2 |  |  | C=CC[C@@H]1/C=C(\C)C[C@H](C)C[C@H](OC)[C@H]2O[C@@](O)(C(=O)C(=O)N3CCCC[C@H]3C(=O)O[C@H](/C(C)=C/[C@@H]3CC[C@@H](O)[C@H](OC)C3)[C@H](C)[C@@H](O)CC1=O)[C@H](C)C[C@@H]2OC [tacrolimus] |  |  |  |  |  |  |  |  | 14
